From patent publication US11034725B2, “Compositions and methods for treating cardiovascular disease” (Genentech, Inc., priority 2016, dated 2021)
Like-named read-outs stand apart in the source and are kept apart here. Numbered stars: 1 amine (or outer) side, 2 acyl side, 3 side chain; on linkers, the order of the positions; unused ones are H or OH. Bridge positions count the residues as written; N and C are the ends. Square brackets hold non-standard residues; d marks the D form. Peptide text beside a SMILES is read from it. * marks the point of attachment. NH(CH2)9CO = O=C(CCCCCCCCCN[*:1])[*:2]; hArg = N=C(N)NCCCC[C@H](N)C(=O)O; Pentanoyl = CCCCC(=O)*; Aoc = NCCCCCCCC(=O)O; Ahx = NCCCCCC(=O)O

Assays:
[1] = target: T1, PCSK9Δhelix (Homo sapiens, UniProt Q8NBP7); assay: PCSK9Δhelix/Ab20 TR-FRET binding assay; conditions: for IC50: TR-FRET, read-out: PCSK9Δhelix/Ab20 IC50
T1 construct: Human PCSK9 construct M1-Q692 with an engineered TEV site (residue deletion Y166, R167); made in house; host or cells: CHO
T1 sequence (Q8NBP7 with tags, fused parts or gaps limits assumed): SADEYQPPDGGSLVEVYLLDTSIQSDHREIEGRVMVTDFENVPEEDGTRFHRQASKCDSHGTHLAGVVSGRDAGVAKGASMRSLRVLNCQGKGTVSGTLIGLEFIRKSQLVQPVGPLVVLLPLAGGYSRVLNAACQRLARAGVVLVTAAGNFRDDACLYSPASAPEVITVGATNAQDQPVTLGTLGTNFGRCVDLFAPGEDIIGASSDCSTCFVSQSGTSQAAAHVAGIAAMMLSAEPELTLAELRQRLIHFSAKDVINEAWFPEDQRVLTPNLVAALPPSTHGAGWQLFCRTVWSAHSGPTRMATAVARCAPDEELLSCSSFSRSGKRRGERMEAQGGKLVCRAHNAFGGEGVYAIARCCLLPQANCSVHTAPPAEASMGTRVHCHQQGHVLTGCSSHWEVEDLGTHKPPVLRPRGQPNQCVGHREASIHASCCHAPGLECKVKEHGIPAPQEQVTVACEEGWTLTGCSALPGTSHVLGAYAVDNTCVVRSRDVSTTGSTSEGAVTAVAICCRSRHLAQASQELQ
T1 sequence (Q8NBP7 31-152 partner limits assumed): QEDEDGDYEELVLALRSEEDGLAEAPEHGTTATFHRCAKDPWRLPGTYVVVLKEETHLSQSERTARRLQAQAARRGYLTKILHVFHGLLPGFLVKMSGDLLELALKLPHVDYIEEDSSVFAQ

[2] = target: PCSK9 (Homo sapiens, UniProt Q8NBP7); assay: PCSK9/EGF(A) TR-FRET binding assay; conditions: TR-FRET, read-out: PCSK9/EGF(A) IC50
Sequence of PCSK9 (Q8NBP7 153-692): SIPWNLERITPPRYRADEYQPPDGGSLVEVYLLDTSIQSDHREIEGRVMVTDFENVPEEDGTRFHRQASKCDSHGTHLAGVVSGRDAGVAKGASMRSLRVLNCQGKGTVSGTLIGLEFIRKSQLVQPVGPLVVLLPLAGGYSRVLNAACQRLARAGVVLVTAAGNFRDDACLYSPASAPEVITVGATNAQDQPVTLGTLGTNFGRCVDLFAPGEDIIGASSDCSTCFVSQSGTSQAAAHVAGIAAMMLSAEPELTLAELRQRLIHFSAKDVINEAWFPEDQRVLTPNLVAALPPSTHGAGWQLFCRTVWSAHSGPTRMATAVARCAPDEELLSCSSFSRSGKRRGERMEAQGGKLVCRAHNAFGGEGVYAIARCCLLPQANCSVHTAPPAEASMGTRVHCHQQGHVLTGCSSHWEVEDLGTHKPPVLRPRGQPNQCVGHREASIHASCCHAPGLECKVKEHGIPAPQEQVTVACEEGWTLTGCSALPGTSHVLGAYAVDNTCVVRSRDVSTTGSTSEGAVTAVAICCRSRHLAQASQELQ
Sequence of PCSK9 (Q8NBP7 31-152 partner limits assumed): as the sequence (Q8NBP7 31-152 partner limits assumed) above

[3] = tested on: His-EGF(A)-Fc; assay: His-EGF(A)-Fc TR-FRET counterscreen
[4] = TR-FRET counterscreen, Table 8E, additional compounds
[5] = Table 8D, disulfide-cyclized extension peptides
[6] = TR-FRET counterscreen, Table 8D, * = some inhibition at highest concentrations, not sufficient to fit an IC50

| Compound | IC50 [1, 5] [µM] | IC50 [2, 5] [µM] | IC50 [3, 6] [µM] | IC50 ([2]; Example 7) [µM] | other results |
| --- | --- | --- | --- | --- | --- |
| CCCCC(=O)N[C@@H](Cc1c[nH]c2ccccc12)C(=O)N[C@@H](CC(N)=O)C(=O)N[C@@H](CC(C)C)C(=O)N[C@@H](CCCCN)C(=O)N[C@@H](CCCNC(=N)N)C(=O)N[C@H](C(=O)NCC(=O)N[C@@H](CC(C)C)C(=O)N[C@@H](CC(C)C)C(=O)N[C@@H](CCCNC(=N)N)C(N)=O)[C@@H](C)CC [Compound 159] (Pentanoyl-WNLKRIGLLR-NH2) | – | – | – | – | IC50 ([1]; Table 8E, additional compounds): 6.6 µM; IC50 ([2]; Table 8E, additional compounds): ≥ 50 µM; IC50 [3, 4]: ≥ 50 µM |
| CC[C@H](C)[C@@H]1NC(=O)[C@H](CCCNC(=N)N)NC(=O)[C@H](CCC(N)=O)NC(=O)[C@H](CC(C)C)NC(=O)[C@H](CC(N)=O)NC(=O)[C@H](Cc2c[nH]c3ccccc23)NC(=O)[C@@H]2CCCN2C(=O)[C@@H](CC(C)C)NC(=O)[C@H](CCCNC(=N)N)NC(=O)[C@@H](NC(C)=O)CSSC[C@@H](C(N)=O)NC(=O)[C@@H]2CCCN2C(=O)[C@H](CC(C)C)NC(=O)CNC1=O [Compound 108] (Ac-CR[dL]PWNLQRIGLPC-NH2; disulfide 1-14) | 28.2 | > 50 | > 50 | – | – |
| Ac-DLMPWNLVRIGLLA-NH2 [Compound 54] | – | – | – | > 50 | IC50 ([1]; Example 7): 15.4 µM; IC50 ([3]; counterscreen, Example 7): > 50 µM |
| CC[C@H](C)[C@@H]1NC(=O)[C@H](CCCNC(=N)N)NC(=O)[C@H](CCC(N)=O)NC(=O)[C@H](CC(C)C)NC(=O)[C@H](CC(N)=O)NC(=O)[C@H](Cc2c[nH]c3ccccc23)NC(=O)[C@@H]2CCCN2C(=O)[C@H](CC(C)C)NC(=O)[C@H](CCCNC(=N)N)NC(=O)[C@@H](NC(C)=O)CSSC[C@@H](C(N)=O)NC(=O)CCCCCNC1=O [Compound 116] (Ac-CRLPWNLQRI[Ahx]C-NH2; disulfide 1-12) | 31.6 | > 50 | > 50 | – | inhibition in the PCSK9Δhelix/Ab20 binding assay [1]: weak but detectable inhibition |
| CC[C@H](C)[C@@H]1NC(=O)[C@H](CCCNC(=N)N)NC(=O)[C@H](CCC(N)=O)NC(=O)[C@H](CC(C)C)NC(=O)[C@H](CC(N)=O)NC(=O)[C@H](Cc2c[nH]c3ccccc23)NC(=O)[C@@H]2CCCN2C(=O)[C@H](CC(C)C)NC(=O)[C@H](CCCNC(=N)N)NC(=O)[C@@H](NC(C)=O)CSSC[C@@H](C(N)=O)NC(=O)[C@@H]2CCCN2C(=O)[C@@H](CC(C)C)NC(=O)CNC1=O [Compound 100] (Ac-CRLPWNLQRIG[dL]PC-NH2; disulfide 1-14) | > 50 | > 50 | > 50 | – | – |
| CC[C@H](C)[C@@H]1NC(=O)[C@H](CCCNC(=N)N)NC(=O)[C@H](C)NC(=O)[C@H](CC(C)C)NC(=O)[C@H](CC(N)=O)NC(=O)[C@H](Cc2c[nH]c3ccccc23)NC(=O)[C@H](CC(C)C)NC(=O)[C@@H](NC(=O)[C@H](Cc2ccccc2)NC(C)=O)CSSC[C@@H](C(=O)N[C@@H](Cc2c[nH]c3ccccc23)C(=O)N[C@@H](Cc2ccccc2)C(N)=O)NC(=O)[C@H](CCC(N)=O)NC(=O)[C@H](CO)NC(=O)CNC1=O [Compound 88] (Ac-FCLWNLARIGSQCWF-NH2; disulfide 2-13) | 7.46 | – | > 50 | 17.9 | – |
| Ac-GGMPWNLVRIGLLR-NH2 [Compound 125] | – | – | – | – | IC50 ([1]; Table 8E, additional compounds): 7 µM; IC50 ([2]; Table 8E, additional compounds): ≥ 50 µM; IC50 [3, 4]: ≥ 50 µM |
| CC(=O)N[C@H]1CSSC[C@@H](C(N)=O)NC(=O)[C@@H]2CCCN2C(=O)[C@H](CC(C)C)NC(=O)CNC(=O)[C@H](C)NC(=O)[C@H](CCCNC(=N)N)NC(=O)[C@H](CCC(N)=O)NC(=O)[C@H](CC(C)C)NC(=O)[C@H](CC(N)=O)NC(=O)[C@H](Cc2c[nH]c3ccccc23)NC(=O)[C@@H]2CCCN2C(=O)[C@H](CC(C)C)NC(=O)[C@H](CCCNC(=N)N)NC1=O [Compound 71] (Ac-CRLPWNLQRAGLPC-NH2; disulfide 1-14) | 49.5 | > 50 | > 50 | – | – |
| Ac-DLMPWNLVRI-NH2 [Compound 49] | – | – | – | > 50 | IC50 ([1]; Example 7): ≥ 49.5 µM; IC50 ([3]; counterscreen, Example 7): > 50 µM |
| CC[C@H](C)[C@@H]1NC(=O)[C@H](CCCNC(=N)N)NC(=O)[C@H](CCC(N)=O)NC(=O)[C@H](CC(C)C)NC(=O)[C@H](CC(N)=O)NC(=O)[C@H](Cc2c[nH]c3ccccc23)NC(=O)[C@@H]2CCCN2C(=O)[C@H](CC(C)C)NC(=O)[C@@H](CCCNC(=N)N)NC(=O)[C@@H](NC(C)=O)CSSC[C@@H](C(N)=O)NC(=O)[C@@H]2CCCN2C(=O)[C@H](CC(C)C)NC(=O)CNC1=O [Compound 109] (Ac-C[dR]LPWNLQRIGLPC-NH2; disulfide 1-14) | 1.67 | > 50 | > 50 | – | – |
| CC[C@H](C)[C@@H]1NC(=O)[C@H](CCCNC(=N)N)NC(=O)[C@H](CCCCN)NC(=O)[C@H](CC(C)C)NC(=O)[C@H](CC(N)=O)NC(=O)[C@H](Cc2c[nH]c3ccccc23)NC(=O)[C@@H](NC(C)=O)CSSC[C@@H](C(=O)N[C@@H](Cc2c[nH]c3ccccc23)C(N)=O)NC(=O)CNC(=O)[C@H](CCC(N)=O)NC(=O)[C@H](CO)NC(=O)CNC1=O [Compound 39] (Ac-CWNLKRIGSQGCW-NH2; disulfide 1-12) | 37.5 | > 50 | > 50 | – | – |
| CC[C@H](C)[C@@H]1NC(=O)[C@H](CCCNC(=N)N)NC(=O)[C@H](CCC(N)=O)NC(=O)[C@H](CC(C)C)NC(=O)[C@H](CC(N)=O)NC(=O)[C@H](Cc2c[nH]c3ccccc23)NC(=O)[C@@H]2CCCN2C(=O)[C@H](CC(C)C)NC(=O)[C@H](CCCNC(=N)N)NC(=O)[C@@H](NC(C)=O)CSSC[C@@H](C(N)=O)NC(=O)CNC(=O)CNC(=O)CNC1=O [Compound 81] (Ac-CRLPWNLQRIGGGC-NH2; disulfide 1-14) | 28.8 | > 50 | > 50 | – | – |
| CC[C@H](C)[C@H](NC(=O)[C@H](CCCCNC(=N)N)NC(=O)[C@@H](NC(=O)[C@H](CC(C)C)NC(=O)[C@H](CC(N)=O)NC(=O)[C@@H](N)Cc1c[nH]c2ccccc12)C(C)C)C(=O)NCC(=O)N[C@@H](CC(C)C)C(=O)N[C@@H](CC(C)C)C(=O)N[C@@H](CCC(N)=O)C(N)=O [Compound 237, WNLV(homoR)IGLLQ-NH2] (H-WNLV[hArg]IGLLQ-NH2) | – | – | – | – | IC50 ([1]; Table 8E, additional compounds): 0.33 µM; IC50 ([2]; Table 8E, additional compounds): 8.8 µM; IC50 [3, 4]: 46 µM |
| CCCCC(=O)N[C@@H](Cc1c[nH]c2ccccc12)C(=O)N[C@@H](CC(N)=O)C(=O)N[C@@H](CC(C)C)C(=O)N[C@H](C(=O)N[C@@H](CCCNC(=N)N)C(=O)N[C@H](C(=O)NCC(=O)N[C@H](C(=O)N[C@@H](CC(C)C)C(=O)N[C@@H](CCCNC(=N)N)C(N)=O)[C@@H](C)O)[C@@H](C)CC)C(C)C [Compound 114] (Pentanoyl-WNLVRIGTLR-NH2) | – | – | – | > 50 | IC50 ([1]; Example 7): > 50 µM; IC50 ([3]; counterscreen, Example 7): > 50 µM |
| Ac-WNLVRIGL-NH2 [Compound 120] | – | – | – | > 50 | IC50 ([1]; Example 7): ≥ 49.5 µM; IC50 ([3]; counterscreen, Example 7): > 50 µM |
| CC(=O)N[C@H]1CSSC[C@@H](C(N)=O)NC(=O)CCCCCCCNC(=O)[C@H](CCCNC(=N)N)NC(=O)[C@H](CCC(N)=O)NC(=O)[C@H](CC(C)C)NC(=O)[C@H](CC(N)=O)NC(=O)[C@H](Cc2c[nH]c3ccccc23)NC(=O)[C@@H]2CCCN2C(=O)[C@H](CC(C)C)NC(=O)[C@H](CCCNC(=N)N)NC1=O [Compound 86] (Ac-CRLPWNLQR[Aoc]C-NH2; disulfide 1-11) | > 50 | > 50 | > 50 | – | inhibition in the PCSK9Δhelix/Ab20 binding assay [1]: removes inhibition |
| CC[C@H](C)[C@@H]1NC(=O)[C@H](CCCNC(=N)N)NC(=O)[C@H](CCC(N)=O)NC(=O)[C@H](CC(C)C)NC(=O)[C@H](CC(N)=O)NC(=O)[C@H](C)NC(=O)[C@@H]2CCCN2C(=O)[C@H](CC(C)C)NC(=O)[C@H](CCCNC(=N)N)NC(=O)[C@@H](NC(C)=O)CSSC[C@@H](C(N)=O)NC(=O)[C@@H]2CCCN2C(=O)[C@H](CC(C)C)NC(=O)CNC1=O [Compound 76] (Ac-CRLPANLQRIGLPC-NH2; disulfide 1-14) | 49.5 | > 50 | > 50 | – | – |
| CCCCC(=O)N[C@@H](Cc1c[nH]c2ccccc12)C(=O)N[C@@H](CC(N)=O)C(=O)N[C@@H](CC(C)C)C(=O)N[C@H](C(=O)N[C@@H](CCCNC(=N)N)C(=O)N[C@H](C(=O)NCC(=O)N[C@@H](CC(C)C)C(=O)N[C@H](C(=O)N[C@@H](CCCNC(=N)N)C(=O)O)[C@@H](C)O)[C@@H](C)CC)C(C)C [Compound 176] (Pentanoyl-WNLVRIGLTR-OH) | – | – | – | – | IC50 ([1]; Table 8E, additional compounds): 18 µM; IC50 ([2]; Table 8E, additional compounds): ≥ 50 µM; IC50 [3, 4]: ≥ 50 µM |
| CC(=O)N[C@H]1CSSC[C@@H](C(N)=O)NC(=O)CCCCCCCCCNC(=O)[C@H](CCCNC(=N)N)NC(=O)[C@H](CCC(N)=O)NC(=O)[C@H](CC(C)C)NC(=O)[C@H](CC(N)=O)NC(=O)[C@H](Cc2c[nH]c3ccccc23)NC(=O)[C@@H]2CCCN2C(=O)[C@H](CC(C)C)NC(=O)[C@H](CCCNC(=N)N)NC1=O [Compound 84] (Ac-CRLPWNLQR[NH(CH2)9CO]C-NH2; disulfide 1-11) | > 50 | > 50 | > 50 | – | inhibition in the PCSK9Δhelix/Ab20 binding assay [1]: removes inhibition |
| CC(=O)N[C@H](C(=O)N[C@H](C(=O)N[C@@H](Cc1ccccc1)C(=O)N[C@H](C(=O)N[C@@H](CO)C(=O)N[C@@H](Cc1c[nH]c2ccccc12)C(=O)N[C@@H](CCC(=O)O)C(=O)N[C@@H](CCC(=O)O)C(=O)N[C@@H](Cc1ccc(O)cc1)C(=O)N[C@@H](CC(C)C)C(=O)N[C@@H](CC(=O)O)C(=O)N[C@@H](Cc1c[nH]c2ccccc12)C(=O)N[C@H](C(=O)NCCCCCCCC(=O)N[C@@H](CCCCN)C(=O)N[C@@H](CC(C)C)C(=O)N[C@@H](Cc1c[nH]c2ccccc12)C(=O)N[C@@H](CC(N)=O)C(=O)N[C@@H](CC(C)C)C(=O)NCC(=O)N[C@@H](CCCNC(=N)N)C(=O)N[C@H](C(N)=O)C(C)C)C(C)C)[C@@H](C)O)C(C)C)[C@@H](C)O [Compound 10] | – | – | – | 0.63 | IC50 ([1]; Example 7): 0.63 µM; IC50 ([3]; counterscreen, Example 7): > 50 µM |
| Ac-TVFTSWEEYLDWVGSGKLWN-NH2 [Compound 7] | – | – | – | 0.5 | IC50 ([1]; Example 7): 18.6 µM; IC50 ([3]; counterscreen, Example 7): > 50 µM |
